Laboratory results reported in patent US12390440B2, “Immunomodulating trifluoromethyl-aminal azalides” (Zoetis Services LLC, priority 2020, dated 2025).

Experiments:
[1] = tested on: IL-1β; experiment: Bovine whole blood assay, IL-1β; type: cell-based; conditions: overstimulation of IL-1β, perceived cellular toxicity concentration;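 also: compound concentration at which rising IL-1β release signals cytotoxicity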
Experimental: (§1) (protected from light) for 30 minutes.

[2] = tested on: IL-6; experiment: Bovine whole blood assay, IL-6; type: cell-based; conditions: Bos taurus, fresh whole bovine blood, LPS 1 μg/mL
Experimental: as §1

[3] = tested on: TNF-α; experiment: Bovine whole blood assay, LPS-induced TNF-α; type: cell-based; conditions: Bos taurus, fresh whole bovine blood, LPS 1 μg/mL
Experimental: as §1

[4] = tested on: M. haemolytica; experiment: MIC, M. haemolytica; conditions: Mannheimia haemolytica
[5] = tested on: E. coli; experiment: MIC, E. coli; conditions: Escherichia coli
[6] = tested on: P. multocida; experiment: MIC, P. multocida; conditions: Pasteurella multocida
[7] = tested on: S. aureus; experiment: MIC, S. aureus; conditions: Staphylococcus aureus
[8] = tested on: BRD pathogens, M. haemolytica and P. multocida; experiment: MIC screening panel, BRD pathogens (CLSI broth micro-dilution); conditions: read-out: MIC flag (*) at Ex #

| SMILES | IL-1β OS of LPS [1] | IC50 [2] | IC50 [3] | MIC [8] | further results |
| --- | --- | --- | --- | --- | --- |
| CC[C@H]1OC(=O)[C@H](C)[C@@H](O[C@H]2C[C@@](C)(OC)[C@](O)(CNC(CO)CO)[C@H](C)O2)[C@H](C)[C@@H](O[C@@H]2O[C@H](C)C[C@H]3[C@H]2OC(C(F)(F)F)N3C)[C@](C)(O)C[C@@H](C)CN[C@H](C)[C@@H](O)[C@]1(C)O (stereo partly drawn) [Example A-4, (2R,3S,4R,5R,8R,10R,11R,12S,13S,14R)-13-(((2R,4R,5S,6S)-5-(((1,3-dihydroxypropan-2-yl)amino)methyl)-5-hydroxy-4-methoxy-4,6-dimethyltetrahydro-2H-pyran-2-yl)oxy)-11-(((3aR,4S,6R,7aS)-1,6-dimethyl-2-(trifluoromethyl)hexahydro-2H-pyrano[4,3-d]oxazol-4-yl)oxy)-2-ethyl-3,4,10-trihydroxy-3,5,8,10,12,14-hexamethyl-1-oxa-6-azacyclopentadecan-15-one] | 80 µM | 200 µM | 40 µM |  |  |
| CC[C@H]1OC(=O)[C@H](C)[C@@H](O[C@H]2C[C@@](C)(OC)[C@](O)(CNC3CCC3)[C@H](C)O2)[C@H](C)[C@@H](O[C@@H]2O[C@H](C)C[C@H]3[C@H]2OC(C(F)(F)F)N3C)[C@](C)(O)C[C@@H](C)CN[C@H](C)[C@@H](O)[C@]1(C)O (stereo partly drawn) [Example A-7, (2R,3S,4R,5R,8R,10R,11R,12S,13S,14R)-13-(((2R,4R,5S,6S)-5-((cyclobutylamino)methyl)-5-hydroxy-4-methoxy-4,6-dimethyltetrahydro-2H-pyran-2-yl)oxy)-11-(((3aR,4S,6R,7aS)-1,6-dimethyl-2-(trifluoromethyl)hexahydro-2H-pyrano[4,3-d]oxazol-4-yl)oxy)-2-ethyl-3,4,10-trihydroxy-3,5,8,10,12,14-hexamethyl-1-oxa-6-azacyclopentadecan-15-one] |  |  |  |  | MIC ([4]; M. haemolytica 12726): > 64 µg/mL; MIC ([4]; M. haemolytica 33396): > 64 µg/mL; MIC ([4]; M. haemolytica 46571, bovine efficacy challenge strain): > 64 µg/mL; MIC ([5]; E. coli 25922): > 64 µg/mL; MIC ([5]; E. coli W3110): > 64 µg/mL; MIC ([6]; P. multocida 43137): > 64 µg/mL; MIC ([6]; P. multocida 46572, murine efficacy challenge strain): > 64 µg/mL; MIC [7]: > 64 µg/mL |
| CC[C@H]1OC(=O)[C@H](C)[C@@H](O[C@H]2C[C@@](C)(OC)[C@](O)(CNCCS(C)(=O)=O)[C@H](C)O2)[C@H](C)[C@@H](O[C@@H]2O[C@H](C)C[C@H]3[C@H]2OC(C(F)(F)F)N3C)[C@](C)(O)C[C@@H](C)CN[C@H](C)[C@@H](O)[C@]1(C)O (stereo partly drawn) [Example A-9, (2R,3S,4R,5R,8R,10R,11R,12S,13S,14R)-11-(((3aR,4S,6R,7aS)-1,6-dimethyl-2-(trifluoromethyl)hexahydro-2H-pyrano[4,3-d]oxazol-4-yl)oxy)-2-ethyl-3,4,10-trihydroxy-13-(((2R,4R,5S,6S)-5-hydroxy-4-methoxy-4,6-dimethyl-5-(((2-(methylsulfonyl)ethyl)amino)methyl)tetrahydro-2H-pyran-2-yl)oxy)-3,5,8,10,12,14-hexamethyl-1-oxa-6-azacyclopentadecan-15-one] | 40 µM | 70 µM | 28 µM |  |  |
| CC[C@H]1OC(=O)[C@H](C)[C@@H](O[C@H]2C[C@@](C)(OC)[C@](O)(CNCCN3CCCCC3=O)[C@H](C)O2)[C@H](C)[C@@H](O[C@@H]2O[C@H](C)C[C@H]3[C@H]2OC(C(F)(F)F)N3C)[C@](C)(O)C[C@@H](C)CN[C@H](C)[C@@H](O)[C@]1(C)O (stereo partly drawn) [Example A-15, (2R,3S,4R,5R,8R,10R,11R,12S,13S,14R)-11-(((3aR,4S,6R,7aS)-1,6-dimethyl-2-(trifluoromethyl)hexahydro-2H-pyrano[4,3-d]oxazol-4-yl)oxy)-2-ethyl-3,4,10-trihydroxy-13-(((2R,4R,5S,6S)-5-hydroxy-4-methoxy-4,6-dimethyl-5-(((2-(2-oxopiperidin-1-yl)ethyl)amino)methyl)tetrahydro-2H-pyran-2-yl)oxy)-3,5,8,10,12,14-hexamethyl-1-oxa-6-azacyclopentadecan-15-one] | 40 µM |  | 23 µM | < 64 µg/mL |  |
| CC[C@H]1OC(=O)[C@H](C)[C@@H](O[C@H]2C[C@@](C)(OC)[C@](O)(CNCC3CCC(=O)N3)[C@H](C)O2)[C@H](C)[C@@H](O[C@@H]2O[C@H](C)C[C@H]3[C@H]2OC(C(F)(F)F)N3C)[C@](C)(O)C[C@@H](C)CN[C@H](C)[C@@H](O)[C@]1(C)O (stereo partly drawn) [Example A-21, (2R,3S,4R,5R,8R,10R,11R,12S,13S,14R)-11-(((3aR,4S,6R,7aS)-1,6-dimethyl-2-(trifluoromethyl)hexahydro-2H-pyrano[4,3-d]oxazol-4-yl)oxy)-2-ethyl-3,4,10-trihydroxy-13-(((2R,4R,5S,6S)-5-hydroxy-4-methoxy-4,6-dimethyl-5-((((5-oxopyrrolidin-2-yl)methyl)amino)methyl)tetrahydro-2H-pyran-2-yl)oxy)-3,5,8,10,12,14-hexamethyl-1-oxa-6-azacyclopentadecan-15-one] | 32 µM | 78 µM | 80 µM |  |  |
| CC[C@H]1OC(=O)[C@H](C)[C@@H](O[C@H]2C[C@@](C)(OC)[C@](O)(CNCCNC(C)=O)[C@H](C)O2)[C@H](C)[C@@H](O[C@@H]2O[C@H](C)C[C@H]3[C@H]2OC(C(F)(F)F)N3C)[C@](C)(O)C[C@@H](C)CN[C@H](C)[C@@H](O)[C@]1(C)O (stereo partly drawn) [Example A-22, N-(2-((((2S,3S,4R,6R)-6-(((2R,3S,4R,5R,8R,10R,11R,12S,13S,14R)-11-(((3aR,4S,6R,7aS)-1,6-dimethyl-2-(trifluoromethyl)hexahydro-2H-pyrano[4,3-d]oxazol-4-yl)oxy)-2-ethyl-3,4,10-trihydroxy-3,5,8,10,12,14-hexamethyl-15-oxo-1-oxa-6-azacyclopentadecan-13-yl)oxy)-3-hydroxy-4-methoxy-2,4-dimethyltetrahydro-2H-pyran-3-yl)methyl)amino)ethyl)acetamide] | 40 µM |  | 62 µM | < 64 µg/mL |  |
| CC[C@H]1OC(=O)[C@H](C)[C@@H](O[C@H]2C[C@@](C)(OC)[C@](O)(CNCCCNS(C)(=O)=O)[C@H](C)O2)[C@H](C)[C@@H](O[C@@H]2O[C@H](C)C[C@H]3[C@H]2OC(C(F)(F)F)N3C)[C@](C)(O)C[C@@H](C)CN[C@H](C)[C@@H](O)[C@]1(C)O (stereo partly drawn) [Example A-23, N-(3-((((2S,3S,4R,6R)-6-(((2R,3S,4R,5R,8R,10R,11R,12S,13S,14R)-11-(((3aR,4S,6R,7aS)-1,6-dimethyl-2-(trifluoromethyl)hexahydro-2H-pyrano[4,3-d]oxazol-4-yl)oxy)-2-ethyl-3,4,10-trihydroxy-3,5,8,10,12,14-hexamethyl-15-oxo-1-oxa-6-azacyclopentadecan-13-yl)oxy)-3-hydroxy-4-methoxy-2,4-dimethyltetrahydro-2H-pyran-3-yl)methyl)amino)propyl)methanesulfonamide] | 40 µM |  | 134 µM | < 64 µg/mL |  |
| CC[C@H]1OC(=O)[C@H](C)[C@@H](O[C@H]2C[C@@](C)(OC)[C@](O)(CNCCN3CCOC3=O)[C@H](C)O2)[C@H](C)[C@@H](O[C@@H]2O[C@H](C)C[C@H]3[C@H]2OC(C(F)(F)F)N3C)[C@](C)(O)C[C@@H](C)CN[C@H](C)[C@@H](O)[C@]1(C)O (stereo partly drawn) [Example A-24, (2R,3S,4R,5R,8R,10R,11R,12S,13S,14R)-11-(((3aR,4S,6R,7aS)-1,6-dimethyl-2-(trifluoromethyl)hexahydro-2H-pyrano[4,3-d]oxazol-4-yl)oxy)-2-ethyl-3,4,10-trihydroxy-13-(((2R,4R,5S,6S)-5-hydroxy-4-methoxy-4,6-dimethyl-5-(((2-(2-oxooxazolidin-3-yl)ethyl)amino)methyl)tetrahydro-2H-pyran-2-yl)oxy)-3,5,8,10,12,14-hexamethyl-1-oxa-6-azacyclopentadecan-15-one] | 40 µM | 29 µM | 70 µM |  |  |
| CCCNC[C@]1(O)[C@H](C)O[C@@H](O[C@H]2[C@H](C)[C@@H](O[C@@H]3O[C@H](C)C[C@H]4[C@H]3OC(C(F)(F)F)N4CC(C)C)[C@](C)(O)C[C@@H](C)CN[C@H](C)[C@@H](O)[C@](C)(O)[C@@H](CC)OC(=O)[C@@H]2C)C[C@@]1(C)OC (stereo partly drawn) [Example A-27, (2R,3S,4R,5R,8R,10R,11R,12S,13S,14R)-2-ethyl-3,4,10-trihydroxy-13-(((2R,4R,5S,6S)-5-hydroxy-4-methoxy-4,6-dimethyl-5-((propylamino)methyl)tetrahydro-2H-pyran-2-yl)oxy)-11-(((3aR,4S,6R,7aS)-1-isobutyl-6-methyl-2-(trifluoromethyl)hexahydro-2H-pyrano[4,3-d]oxazol-4-yl)oxy)-3,5,8,10,12,14-hexamethyl-1-oxa-6-azacyclopentadecan-15-one] | 2 µM | 1 µM | 3 µM | < 64 µg/mL |  |
| CCCNC[C@]1(O)[C@H](C)O[C@@H](O[C@H]2[C@H](C)[C@@H](O[C@@H]3O[C@H](C)C[C@H]4[C@H]3OC(C(F)(F)F)N4Cc3ccccc3)[C@](C)(O)C[C@@H](C)CN[C@H](C)[C@@H](O)[C@](C)(O)[C@@H](CC)OC(=O)[C@@H]2C)C[C@@]1(C)OC (stereo partly drawn) [Example A-28, (2R,3S,4R,5R,8R,10R,11R,12S,13S,14R)-11-(((3aR,4S,6R,7aS)-1-benzyl-6-methyl-2-(trifluoromethyl)hexahydro-2H-pyrano[4,3-d]oxazol-4-yl)oxy)-2-ethyl-3,4,10-trihydroxy-13-(((2R,4R,5S,6S)-5-hydroxy-4-methoxy-4,6-dimethyl-5-((propylamino)methyl)tetrahydro-2H-pyran-2-yl)oxy)-3,5,8,10,12,14-hexamethyl-1-oxa-6-azacyclopentadecan-15-one] | >250 µM | 12 µM | 8 µM | < 64 µg/mL |  |
